The target in this test is T1, peroxisome proliferator-activated receptor gamma (PPARγ) (Homo sapiens, UniProt P37231).
T1 sequence (P37231 223-505 limits assumed): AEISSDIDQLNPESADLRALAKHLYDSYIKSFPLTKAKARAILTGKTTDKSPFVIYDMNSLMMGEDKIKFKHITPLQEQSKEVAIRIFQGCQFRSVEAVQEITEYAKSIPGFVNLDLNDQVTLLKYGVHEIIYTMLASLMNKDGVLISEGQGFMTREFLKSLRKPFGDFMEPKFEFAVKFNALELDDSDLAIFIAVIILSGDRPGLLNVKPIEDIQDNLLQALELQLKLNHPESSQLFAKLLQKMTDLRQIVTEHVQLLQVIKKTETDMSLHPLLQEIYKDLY
Nature of the test: fluorescence polarization probe displacement. The format is binding.

Turning to `O=c1c(-c2ccc(O)cc2)coc2cc(O)cc(O)c12` [genistein], the IC50 (in general, the concentration that inhibits the measured activity by half) worked out at 23.9 µM.

Values taken from article PMC8092170 (Indian Journal of Pharmacology, 2021).
